Experiments:
[1] = molecular target: Casein kinase I isoform gamma-2 (Homo sapiens) (UniProt P78368)
[2] = molecular target: Serine/threonine-protein kinase VRK2 (Homo sapiens) (UniProt Q86Y07)
[3] = molecular target: Mitogen-activated protein kinase 6 (Homo sapiens) (UniProt Q16659)
[4] = molecular target: Serine/threonine-protein kinase PAK 4 (Homo sapiens) (UniProt O96013)
[5] = molecular target: Dual specificity protein kinase CLK1 (Homo sapiens) (UniProt P49759)
[6] = molecular target: T1, Mitogen-activated protein kinase kinase kinase 5 (Homo sapiens) (UniProt Q99683)
T1 sequence (whole entry): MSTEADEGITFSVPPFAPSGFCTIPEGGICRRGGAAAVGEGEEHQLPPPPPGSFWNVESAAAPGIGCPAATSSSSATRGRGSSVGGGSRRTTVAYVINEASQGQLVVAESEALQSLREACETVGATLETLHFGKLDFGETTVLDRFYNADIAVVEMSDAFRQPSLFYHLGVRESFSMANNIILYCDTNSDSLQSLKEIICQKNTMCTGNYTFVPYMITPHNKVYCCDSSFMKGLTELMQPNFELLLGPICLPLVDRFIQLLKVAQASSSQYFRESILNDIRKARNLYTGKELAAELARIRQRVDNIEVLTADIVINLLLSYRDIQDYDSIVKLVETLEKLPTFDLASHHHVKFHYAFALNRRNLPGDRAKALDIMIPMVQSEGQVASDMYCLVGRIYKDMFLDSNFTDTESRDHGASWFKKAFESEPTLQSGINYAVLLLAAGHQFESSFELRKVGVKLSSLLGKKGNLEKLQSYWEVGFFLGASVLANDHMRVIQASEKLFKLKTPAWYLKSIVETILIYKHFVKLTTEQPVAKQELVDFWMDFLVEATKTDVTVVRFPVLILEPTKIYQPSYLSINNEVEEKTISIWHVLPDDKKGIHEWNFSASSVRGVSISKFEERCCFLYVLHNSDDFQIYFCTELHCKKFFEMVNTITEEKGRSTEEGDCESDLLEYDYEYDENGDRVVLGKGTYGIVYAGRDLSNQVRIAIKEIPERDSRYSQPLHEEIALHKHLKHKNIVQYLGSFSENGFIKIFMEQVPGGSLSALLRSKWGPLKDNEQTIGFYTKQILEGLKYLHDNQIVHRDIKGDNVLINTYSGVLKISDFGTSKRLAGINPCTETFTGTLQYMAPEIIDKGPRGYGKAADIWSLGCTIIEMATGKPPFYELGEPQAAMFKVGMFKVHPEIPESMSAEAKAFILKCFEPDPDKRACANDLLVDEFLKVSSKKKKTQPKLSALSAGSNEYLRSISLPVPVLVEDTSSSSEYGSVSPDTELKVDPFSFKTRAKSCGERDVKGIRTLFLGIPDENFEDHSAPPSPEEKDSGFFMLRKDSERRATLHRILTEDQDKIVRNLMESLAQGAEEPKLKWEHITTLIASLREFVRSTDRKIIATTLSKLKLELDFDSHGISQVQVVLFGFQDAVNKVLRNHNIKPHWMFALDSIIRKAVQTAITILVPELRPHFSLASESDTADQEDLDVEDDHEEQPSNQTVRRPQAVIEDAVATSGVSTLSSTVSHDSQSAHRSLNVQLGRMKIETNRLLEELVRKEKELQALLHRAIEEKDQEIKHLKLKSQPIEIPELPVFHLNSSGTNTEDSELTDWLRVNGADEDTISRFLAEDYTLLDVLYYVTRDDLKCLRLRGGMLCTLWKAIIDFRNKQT

[7] = molecular target: Calcium/calmodulin-dependent protein kinase type 1D (Homo sapiens) (UniProt Q8IU85)
[8] = molecular target: Serine/threonine-protein kinase PAK 5 (Homo sapiens) (UniProt Q9P286)
Sequence of Serine/threonine-protein kinase PAK 5 (Homo sapiens) (Q9P286 whole entry, looked up): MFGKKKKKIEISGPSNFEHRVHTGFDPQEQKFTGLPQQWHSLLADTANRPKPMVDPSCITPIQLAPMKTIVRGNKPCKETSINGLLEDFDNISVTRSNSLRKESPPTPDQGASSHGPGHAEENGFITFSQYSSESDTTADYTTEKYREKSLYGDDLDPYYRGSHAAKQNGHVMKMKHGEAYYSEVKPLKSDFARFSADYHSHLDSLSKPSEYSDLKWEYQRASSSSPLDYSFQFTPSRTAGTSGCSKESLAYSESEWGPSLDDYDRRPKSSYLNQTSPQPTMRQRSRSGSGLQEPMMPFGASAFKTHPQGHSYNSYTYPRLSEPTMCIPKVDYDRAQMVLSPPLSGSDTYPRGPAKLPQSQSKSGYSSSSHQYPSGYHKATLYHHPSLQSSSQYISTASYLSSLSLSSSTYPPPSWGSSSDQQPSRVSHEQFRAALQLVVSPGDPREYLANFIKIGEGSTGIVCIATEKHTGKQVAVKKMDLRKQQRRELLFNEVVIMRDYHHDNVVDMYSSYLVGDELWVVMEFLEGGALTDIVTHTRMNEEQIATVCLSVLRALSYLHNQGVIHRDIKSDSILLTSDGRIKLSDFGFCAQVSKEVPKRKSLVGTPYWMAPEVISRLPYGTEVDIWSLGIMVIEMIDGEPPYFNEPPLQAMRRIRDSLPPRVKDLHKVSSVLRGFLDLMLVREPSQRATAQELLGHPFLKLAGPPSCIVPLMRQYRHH

[9] = molecular target: Serine/threonine-protein kinase pim-1 (Homo sapiens) (UniProt P11309)
Sequence of Serine/threonine-protein kinase pim-1 (Homo sapiens) (P11309 whole entry, looked up): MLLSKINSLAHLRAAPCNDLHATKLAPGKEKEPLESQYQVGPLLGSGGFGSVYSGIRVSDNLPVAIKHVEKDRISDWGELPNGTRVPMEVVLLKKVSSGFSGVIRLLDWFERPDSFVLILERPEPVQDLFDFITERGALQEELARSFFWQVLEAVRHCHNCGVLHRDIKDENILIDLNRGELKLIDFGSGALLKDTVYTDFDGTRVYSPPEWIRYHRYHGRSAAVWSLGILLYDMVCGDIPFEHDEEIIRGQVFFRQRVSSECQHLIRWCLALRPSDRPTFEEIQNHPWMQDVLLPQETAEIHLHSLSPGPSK

[10] = molecular target: T2, Serine/threonine-protein kinase VRK1 (Homo sapiens) (UniProt Q99986)
T2 sequence (whole entry): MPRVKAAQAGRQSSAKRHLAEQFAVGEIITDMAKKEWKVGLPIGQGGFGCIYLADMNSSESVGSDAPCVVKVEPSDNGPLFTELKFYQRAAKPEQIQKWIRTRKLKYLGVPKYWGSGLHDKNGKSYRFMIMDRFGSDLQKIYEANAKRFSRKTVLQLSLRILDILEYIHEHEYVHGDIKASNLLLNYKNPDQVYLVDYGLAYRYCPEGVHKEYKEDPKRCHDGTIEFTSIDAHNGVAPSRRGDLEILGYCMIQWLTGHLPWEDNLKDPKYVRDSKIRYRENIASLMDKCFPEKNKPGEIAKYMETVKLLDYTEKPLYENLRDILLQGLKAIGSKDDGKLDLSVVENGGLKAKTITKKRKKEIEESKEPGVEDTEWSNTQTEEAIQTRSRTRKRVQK

[11] = molecular target: Tyrosine-protein kinase JAK1 (Homo sapiens) (UniProt P23458)
Sequence of Tyrosine-protein kinase JAK1 (Homo sapiens) (P23458 whole entry): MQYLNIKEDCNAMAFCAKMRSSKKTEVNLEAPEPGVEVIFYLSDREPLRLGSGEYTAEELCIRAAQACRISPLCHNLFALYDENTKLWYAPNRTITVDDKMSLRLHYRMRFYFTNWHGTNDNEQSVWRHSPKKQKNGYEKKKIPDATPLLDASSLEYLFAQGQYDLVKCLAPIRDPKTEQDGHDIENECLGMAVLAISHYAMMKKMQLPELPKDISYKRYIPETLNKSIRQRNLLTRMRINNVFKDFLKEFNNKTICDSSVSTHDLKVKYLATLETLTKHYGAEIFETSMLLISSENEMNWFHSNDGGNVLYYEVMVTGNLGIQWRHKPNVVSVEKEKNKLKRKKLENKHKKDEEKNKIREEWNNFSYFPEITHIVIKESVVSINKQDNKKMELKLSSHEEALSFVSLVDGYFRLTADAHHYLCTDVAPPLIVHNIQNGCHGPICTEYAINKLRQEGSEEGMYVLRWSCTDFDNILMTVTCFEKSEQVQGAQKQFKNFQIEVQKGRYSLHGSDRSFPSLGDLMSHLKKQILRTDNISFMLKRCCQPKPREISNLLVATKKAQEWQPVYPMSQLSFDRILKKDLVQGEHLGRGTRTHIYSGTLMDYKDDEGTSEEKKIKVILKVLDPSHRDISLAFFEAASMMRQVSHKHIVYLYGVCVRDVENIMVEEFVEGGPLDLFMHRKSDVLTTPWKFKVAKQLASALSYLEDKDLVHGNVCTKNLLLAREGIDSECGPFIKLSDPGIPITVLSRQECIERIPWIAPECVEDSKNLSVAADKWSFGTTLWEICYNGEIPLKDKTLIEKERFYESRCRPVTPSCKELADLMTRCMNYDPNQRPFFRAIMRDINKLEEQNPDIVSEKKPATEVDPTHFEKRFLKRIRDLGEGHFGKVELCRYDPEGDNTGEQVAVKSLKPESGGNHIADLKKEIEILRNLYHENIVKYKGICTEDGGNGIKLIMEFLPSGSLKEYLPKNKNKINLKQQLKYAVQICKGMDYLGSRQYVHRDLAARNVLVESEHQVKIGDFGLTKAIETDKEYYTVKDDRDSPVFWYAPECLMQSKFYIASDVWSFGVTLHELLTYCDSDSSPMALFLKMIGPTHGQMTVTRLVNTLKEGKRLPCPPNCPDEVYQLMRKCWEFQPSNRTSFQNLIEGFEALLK

[12] = molecular target: Calcium/calmodulin-dependent protein kinase type II subunit beta (Homo sapiens) (UniProt Q13554)
[13] = molecular target: Serine/threonine-protein kinase 10 (Homo sapiens) (UniProt O94804)
Sequence of Serine/threonine-protein kinase 10 (Homo sapiens) (O94804 whole entry, looked up): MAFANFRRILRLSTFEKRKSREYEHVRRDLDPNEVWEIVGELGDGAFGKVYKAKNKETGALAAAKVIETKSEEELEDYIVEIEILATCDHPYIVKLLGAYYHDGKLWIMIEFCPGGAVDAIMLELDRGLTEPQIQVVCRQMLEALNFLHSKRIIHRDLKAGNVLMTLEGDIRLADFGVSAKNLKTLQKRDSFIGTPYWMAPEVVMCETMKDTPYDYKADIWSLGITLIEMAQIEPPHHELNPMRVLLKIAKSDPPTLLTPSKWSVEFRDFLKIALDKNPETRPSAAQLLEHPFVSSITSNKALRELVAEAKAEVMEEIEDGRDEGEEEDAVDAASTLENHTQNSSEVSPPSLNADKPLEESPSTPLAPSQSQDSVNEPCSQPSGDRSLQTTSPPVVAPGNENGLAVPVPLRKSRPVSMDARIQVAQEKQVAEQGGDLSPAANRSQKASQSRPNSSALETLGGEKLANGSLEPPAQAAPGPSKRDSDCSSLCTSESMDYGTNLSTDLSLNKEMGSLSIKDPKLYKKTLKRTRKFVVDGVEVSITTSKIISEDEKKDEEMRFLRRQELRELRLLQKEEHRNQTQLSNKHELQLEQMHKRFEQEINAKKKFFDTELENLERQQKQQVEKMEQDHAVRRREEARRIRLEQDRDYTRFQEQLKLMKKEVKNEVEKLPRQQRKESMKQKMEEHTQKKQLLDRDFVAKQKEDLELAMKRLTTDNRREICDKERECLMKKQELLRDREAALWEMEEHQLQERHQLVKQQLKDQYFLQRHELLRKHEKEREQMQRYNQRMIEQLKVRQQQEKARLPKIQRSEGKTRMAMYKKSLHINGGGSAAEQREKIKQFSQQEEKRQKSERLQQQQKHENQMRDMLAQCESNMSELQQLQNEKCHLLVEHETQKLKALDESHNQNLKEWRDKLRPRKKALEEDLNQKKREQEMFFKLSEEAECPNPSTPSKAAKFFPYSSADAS

[14] = molecular target: Serine/threonine-protein kinase OSR1 (Homo sapiens) (UniProt O95747)
Sequence of Serine/threonine-protein kinase OSR1 (Homo sapiens) (O95747 2-527 limits assumed): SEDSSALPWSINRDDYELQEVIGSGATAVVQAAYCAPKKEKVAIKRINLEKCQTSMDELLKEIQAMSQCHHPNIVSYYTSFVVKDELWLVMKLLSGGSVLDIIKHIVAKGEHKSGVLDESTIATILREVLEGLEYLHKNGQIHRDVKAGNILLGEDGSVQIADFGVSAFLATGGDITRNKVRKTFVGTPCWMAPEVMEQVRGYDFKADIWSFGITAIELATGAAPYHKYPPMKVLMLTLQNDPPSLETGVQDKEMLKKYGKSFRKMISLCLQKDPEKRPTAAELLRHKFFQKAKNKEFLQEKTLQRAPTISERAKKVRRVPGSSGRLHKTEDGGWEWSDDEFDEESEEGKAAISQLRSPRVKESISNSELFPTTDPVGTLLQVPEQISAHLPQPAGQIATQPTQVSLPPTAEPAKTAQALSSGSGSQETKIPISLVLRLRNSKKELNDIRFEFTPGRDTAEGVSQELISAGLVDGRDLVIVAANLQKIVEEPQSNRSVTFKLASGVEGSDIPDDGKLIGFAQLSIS

[15] = molecular target: Cyclin-dependent kinase 16 (Homo sapiens) (UniProt Q00536)
Sequence of Cyclin-dependent kinase 16 (Homo sapiens) (Q00536 whole entry): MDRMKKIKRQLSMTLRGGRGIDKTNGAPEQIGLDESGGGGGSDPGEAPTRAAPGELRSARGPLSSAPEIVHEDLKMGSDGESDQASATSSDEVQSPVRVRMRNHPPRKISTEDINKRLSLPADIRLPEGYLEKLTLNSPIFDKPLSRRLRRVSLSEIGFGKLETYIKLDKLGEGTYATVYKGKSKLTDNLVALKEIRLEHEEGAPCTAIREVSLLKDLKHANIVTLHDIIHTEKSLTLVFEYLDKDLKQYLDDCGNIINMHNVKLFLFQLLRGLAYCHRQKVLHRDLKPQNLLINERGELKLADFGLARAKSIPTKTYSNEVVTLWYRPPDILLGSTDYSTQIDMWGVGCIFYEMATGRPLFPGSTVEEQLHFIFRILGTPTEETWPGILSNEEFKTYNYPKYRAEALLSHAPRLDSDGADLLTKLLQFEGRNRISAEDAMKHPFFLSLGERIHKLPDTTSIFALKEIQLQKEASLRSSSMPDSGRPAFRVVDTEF

[16] = molecular target: Ribosomal protein S6 kinase alpha-3 (Homo sapiens) (UniProt P51812)
[17] = molecular target: Cyclin-dependent kinase 6 (Homo sapiens) (UniProt Q00534)
Sequence of Cyclin-dependent kinase 6 (Homo sapiens) (Q00534 whole entry): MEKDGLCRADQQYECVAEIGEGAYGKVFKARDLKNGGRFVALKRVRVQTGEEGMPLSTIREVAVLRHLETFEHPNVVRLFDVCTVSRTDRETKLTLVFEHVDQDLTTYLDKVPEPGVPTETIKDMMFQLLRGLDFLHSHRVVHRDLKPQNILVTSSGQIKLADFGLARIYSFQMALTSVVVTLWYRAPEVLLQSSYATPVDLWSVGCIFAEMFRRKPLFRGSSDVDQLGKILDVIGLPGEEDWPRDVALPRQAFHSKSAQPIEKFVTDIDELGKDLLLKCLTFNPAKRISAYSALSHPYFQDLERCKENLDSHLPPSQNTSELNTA

[18] = molecular target: Mitogen-activated protein kinase 3 (Homo sapiens, UniProt P27361)

Sequence of Casein kinase I isoform gamma-2 (Homo sapiens) (P78368 whole entry, looked up, canonical isoform): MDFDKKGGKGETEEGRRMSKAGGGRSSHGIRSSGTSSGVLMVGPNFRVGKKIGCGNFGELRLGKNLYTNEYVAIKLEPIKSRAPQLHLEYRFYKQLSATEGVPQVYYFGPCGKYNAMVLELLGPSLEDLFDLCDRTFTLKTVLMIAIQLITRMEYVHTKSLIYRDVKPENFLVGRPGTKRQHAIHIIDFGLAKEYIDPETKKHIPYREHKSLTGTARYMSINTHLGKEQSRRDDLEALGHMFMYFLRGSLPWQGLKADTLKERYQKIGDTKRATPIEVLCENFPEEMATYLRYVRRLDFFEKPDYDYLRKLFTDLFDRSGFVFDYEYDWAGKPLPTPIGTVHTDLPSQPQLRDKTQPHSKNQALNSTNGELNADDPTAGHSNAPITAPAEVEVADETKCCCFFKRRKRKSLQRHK

O=C1NC(=O)c2c1c1c3ccccc3n3c1c1c2c2ccccc2n1C1CCC3O1
ΔTm [1]: 0.7 °C | ΔTm [2]: 0.1 °C | ΔTm [3]: 0.5 °C | ΔTm [4]: 2.8 °C | ΔTm [5]: 3.3 °C | ΔTm [6]: 3.9 °C | ΔTm [7]: 1.6 °C | ΔTm [8]: 2.4 °C | ΔTm [9]: 6.2 °C | ΔTm [10]: -0.1 °C | ΔTm [11]: -0.2 °C | ΔTm [12]: 1.2 °C | ΔTm [13]: -0.5 °C | ΔTm [14]: 0.7 °C | ΔTm [15]: 0.3 °C | ΔTm [16]: -0.4 °C | ΔTm [17]: -0.3 °C | ΔTm [18]: -0.2 °C

Cl.Cn1cc(C2=C(c3ccc4cc5n(c4c3)CCC(CN)C5)C(=O)NC2=O)c2ccccc21 (stereo unspecified)
ΔTm [1]: 0.4 °C | ΔTm [2]: 0.4 °C | ΔTm [3]: 0.7 °C | ΔTm [4]: 1.6 °C | ΔTm [5]: 1 °C | ΔTm [6]: 0 °C | ΔTm [7]: 0.3 °C | ΔTm [8]: 0.1 °C | ΔTm [9]: 6.3 °C | ΔTm [10]: 0.8 °C | ΔTm [11]: -2.8 °C | ΔTm [12]: 1.2 °C | ΔTm [13]: 5.3 °C | ΔTm [14]: -0.1 °C | ΔTm [15]: 2.9 °C | ΔTm [16]: 0.1 °C | ΔTm [17]: 1 °C | ΔTm [18]: -0.5 °C

C[C@@H]1C[C@H]2O[C@@H]2/C=C\C=C\C(=O)Cc2c(Cl)c(O)cc(O)c2C(=O)O1 [RADICICOL]
ΔTm [1]: 0 °C | ΔTm [2]: 0.2 °C | ΔTm [3]: 0.4 °C | ΔTm [4]: 1.3 °C | ΔTm [5]: 0 °C | ΔTm [6]: -0.2 °C | ΔTm [7]: 0 °C | ΔTm [8]: 0.6 °C | ΔTm [9]: -0.1 °C | ΔTm [10]: -0.2 °C | ΔTm [11]: -0.2 °C | ΔTm [12]: 0.1 °C | ΔTm [13]: -0.4 °C | ΔTm [14]: 1.4 °C | ΔTm [15]: 0.2 °C | ΔTm [16]: 0.9 °C | ΔTm [17]: -0.5 °C | ΔTm [18]: 0 °C

O=C1NC(=O)c2c1c1c3ccccc3[nH]c1n1cncc21 [ISOGRANULATIMIDE]
ΔTm [1]: 3.6 °C | ΔTm [2]: 2 °C | ΔTm [3]: 1.2 °C | ΔTm [4]: 3.8 °C | ΔTm [5]: 4.5 °C | ΔTm [6]: 2.6 °C | ΔTm [7]: 1 °C | ΔTm [8]: 1.3 °C | ΔTm [9]: 9 °C | ΔTm [10]: 1.7 °C | ΔTm [11]: 7.5 °C | ΔTm [12]: 1.2 °C | ΔTm [13]: 5.4 °C | ΔTm [14]: 1.4 °C | ΔTm [15]: 3.1 °C | ΔTm [16]: 2.5 °C | ΔTm [17]: 2.7 °C | ΔTm [18]: 2 °C

Brc1c(Br)c(Br)c2[nH]nnc2c1Br [TETRABROMOBENZOTRIAZOLE]
ΔTm [1]: 0.3 °C | ΔTm [2]: -0.5 °C | ΔTm [3]: -0.2 °C | ΔTm [4]: -0.1 °C | ΔTm [5]: 3.6 °C | ΔTm [6]: 1.9 °C | ΔTm [7]: -1.6 °C | ΔTm [8]: 0.2 °C | ΔTm [9]: 3.7 °C | ΔTm [10]: -1.5 °C | ΔTm [11]: 0.7 °C | ΔTm [12]: 1.2 °C | ΔTm [13]: 0 °C | ΔTm [14]: 2.1 °C | ΔTm [15]: -0.5 °C | ΔTm [16]: 1.7 °C | ΔTm [17]: 0.3 °C | ΔTm [18]: 0 °C

O=C1C(Cl)=C(N2C(=O)CCC2=O)C(=O)c2ccccc21
ΔTm [1]: 0.1 °C | ΔTm [2]: -0.3 °C | ΔTm [3]: -1.1 °C | ΔTm [4]: -0.4 °C | ΔTm [5]: -1.1 °C | ΔTm [6]: -1.1 °C | ΔTm [7]: -9.6 °C | ΔTm [8]: -1.3 °C | ΔTm [9]: 0.9 °C | ΔTm [10]: -0.6 °C | ΔTm [11]: -2.9 °C | ΔTm [12]: -1.5 °C | ΔTm [13]: -0.5 °C | ΔTm [14]: -1.4 °C | ΔTm [15]: 0.4 °C | ΔTm [16]: -2.4 °C | ΔTm [17]: 1.6 °C | ΔTm [18]: 1 °C

CN(C)c1ncnc2nc[nH]c12 [DIMETHYLADENINE]
ΔTm [1]: 0.5 °C | ΔTm [2]: 0 °C | ΔTm [3]: -0.1 °C | ΔTm [4]: 0.5 °C | ΔTm [5]: 1.3 °C | ΔTm [6]: 2.8 °C | ΔTm [7]: 0 °C | ΔTm [8]: 0 °C | ΔTm [9]: 0 °C | ΔTm [10]: 0 °C | ΔTm [11]: 0.9 °C | ΔTm [12]: 0 °C | ΔTm [13]: -0.4 °C | ΔTm [14]: 1.1 °C | ΔTm [15]: -0.3 °C | ΔTm [16]: 0.8 °C | ΔTm [17]: 0.1 °C | ΔTm [18]: 0.4 °C

From ChEMBL document CHEMBL1145498, “A systematic interaction map of validated kinase inhibitors with Ser/Thr kinases” (Proc Natl Acad Sci U S A, 2007)
